Results taken from patent EP2307018B1, “OXYMATRINE COMPOSITIONS AND USE THEREOF FOR TREATING AND PREVENTING CHRONIC INFECTIOUS DISEASES” (Chia, John K.S., priority 2008, dated 2010).

How the values were obtained:
[1] = system: Coxsackievirus B; details: intravenous matrine; 0% in the placebo-treated group; cited from earlier work
[2] = system: coxsackievirus B; details: in vitro; mechanism not defined; cited from earlier work
[3] = system: echoviruses; details: in vitro; mechanism not defined; cited from earlier work
[4] = system: enterovirus; assay: case report Example 5, treatment of chronic fatigue; assay type: in vivo, human; details: before oxymatrine
Experimental: A person developed debilitating fatigue, sore throat, oral ulcers, vertigo, headaches and cognitive dysfunction two months after having a flu-like illness. […] Approximately four years later, the patient started taking oxymatrine. After an initial increase of gastrointestinal symptoms for the first two weeks, the patient tolerated 500 mg per day of oxymatrine.
The symptoms continued for two weeks and resolved after stopping oxymatrine. […] They continued to improve for 12 months after taking the medication.

| Structure (SMILES) | patients with improvement of cardiac function, increase in lymphocyte number and function, and loss of viral markers [1] | growth inhibition of coxsackievirus B in cell cultures [2] | growth inhibition of echoviruses in cell cultures [3] | clinical response [4] |
| --- | --- | --- | --- | --- |
| O=C1CCC[C@@H]2[C@H]3CCCN4CCC[C@@H](CN12)[C@@H]34 [matrine] | more than 90% | growth inhibition | growth inhibition |  |
| CC(C)[C@H](N)C(=O)OCCOCn1cnc2c(=O)[nH]c(N)nc21 [valacyclovir, reference compound] |  |  |  | did not respond |
